From patent publication US4673562A, “Bisamide bisthiol compounds useful for making technetium radiodiagnostic renal agents” (The Children's Medical Center Corporation, priority 1983, dated 1987)
“And” between values parts separate entries of the source, which are not always exact repeats. Equal entries are not always repeated.

What was measured:
[1] = Gamma camera: % total dose in bladder, 99mTc complexes coinjected with 131I-OIH into normal dogs (Tables I, III); format: in vivo, dog; parameters: Comparison of % total dose in bladder versus 131I-OIH, column headed by drawing 19 (± s.d.): unit not given here; conditions: for % Total Dose In Bladder (gamma camera data) / pharmacokinetic behavior of the diastereomers / rate of excretion in the urine: normal dogs; for % Total Dose In Bladder (gamma camera data): single animals; for % total dose in bladder at 35 minutes, Average 99mTc (± s.d) / Comparison of % total dose in bladder versus 131I-OIH, column headed by drawing 19 (± s.d.): Table III; for % total dose in bladder at 35 minutes, Average 99mTc (± s.d): average of dogs; for Comparison of % total dose in bladder versus 131I-OIH, column headed by drawing 19 (± s.d.): dogs; for rate of excretion in the urine: versus 131I-OIH
Method: The two fractions collected from the products of synthesis in each case were denoted (XVIA), (XVIB), (XXXIA), and (XXXIB), respectively.
Images were recorded at 1, 5, 10, 15, 20, 25, 30 and 35 minutes after administration. The initial image at one minute was used to collect 750,000 counts. All subsequent images were exposed for the same length of time as this first image, and the number of counts noted. […] In this way, the counts collected in the camera images cound be related to absolute activity levels (mCi or μCi). The animals were then observed until the urine samples were free of ^99m Tc.
The values represent the calculated % total dose in the camera region of interest set over the bladder.

[2] = Biodistribution in Swiss Webster albino male mice, coinjected with 131I-OIH (Tables IV, V); format: in vivo, mouse; conditions: for clearance into the urine: mice, versus 131I-OIH
Method: The diastereomers (XVIA) and (XVIB) were synthesized and then isolated by high pressure liquid chromatography as described previously, and their biodistributions obtained in groups in six Swiss Webster albino male mice. […] The mice were then placed in metabolic cages to collect urine. At 10 and 120 minutes after injection, the penis was ligated, the mice killed with chloroform vapor, and the organs disected.

[3] = Average % total dose in urine samples of dogs (Table II); format: in vivo, dog; conditions: mean
Description: The diastereomeric ^99m Tc complexes formed by reduction of pertechnetate in the presence of (2-benzoylthioacetyl)- glycyl-(S-benzoyl)-cysteine methyl ester (compound XVI) and N-2-(benzoylthio)ethyl)-N'-1-carbomethoxy-(2-benzoylthio)ethyl]oxamide (compound XXXI) were synthesized and separated by high pressure liquid chromatography. The two fractions collected from the products of synthesis in each case were denoted (XVIA), (XVIB), (XXXIA), and (XXXIB), respectively.
Samples of each fraction were mixed with appropriate amounts of ^131 I-OIH and coinjected into normal dogs placed under a gamma camera. Images were recorded at 1, 5, 10, 15, 20, 25, 30 and 35 minutes after administration. The initial image at one minute was used to collect 750,000 counts. All subsequent images were exposed for the same length of time as this first image, and the number of counts noted. Immediately after each count, a urine sample was drawn from the bladder via a indwelling catheter, and the ^99m Tc ANd ^131 I activity determined using an ionization chamber. In this way, the counts collected in the camera images cound be related to absolute activity levels (mCi or μCi). The animals were then observed until the urine samples were free of ^99m Tc.
In Table II can be seen the average % total dose valus observed in the urine samples collected at each time point. Also quoted in parentheses are the standard deviation and standard error of the mean.

[4] = Table IV, 10 min, XVI A and 131I-OIH coinjected
[5] = Table IV, 120 min, XVI A and 131I-OIH coinjected
[6] = Table V, 10 min, XVI B and 131I-OIH coinjected
[7] = Table V, 120 min, XVI B and 131I-OIH coinjected

| SMILES | % Total Dose In Bladder (gamma camera data) ([1]; 5 min post injection, 5 min) | % Total Dose In Bladder (gamma camera data) ([1]; 10 min post injection, 10 min) | % Total Dose In Bladder (gamma camera data) ([1]; 15 min post injection, 15 min) | % Total Dose In Bladder (gamma camera data) ([1]; 20 min post injection, 20 min) | % Total Dose In Bladder (gamma camera data) ([1]; 25 min post injection, 25 min) | % Total Dose In Bladder (gamma camera data) ([1]; 30 min post injection, 30 min) | % Total Dose In Bladder (gamma camera data) ([1]; 35 min post injection, 35 min) | % total dose in bladder at 35 minutes, Average 99mTc (± s.d) ([1]; 35 min) | Comparison of % total dose in bladder versus 131I-OIH, column headed by drawing 19 (± s.d.) ([1]; 35 min) | pharmacokinetic behavior of the diastereomers [1] | rate of excretion in the urine [1] | clearance into the urine [2] | Average % Total Dose in Urine Samples ([3]; 5 min post injection, 5 min) | Average % Total Dose in Urine Samples ([3]; 10 min post injection, 10 min) | Average % Total Dose in Urine Samples ([3]; 15 min post injection, 15 min) | Average % Total Dose in Urine Samples ([3]; 20 min post injection, 20 min) | Average % Total Dose in Urine Samples ([3]; 25 min post injection, 25 min) | Average % Total Dose in Urine Samples ([3]; 30 min post injection, 30 min) | Average % Total Dose in Urine Samples ([3]; 35 min post injection, 35 min) | further results |
| --- | --- | --- | --- | --- | --- | --- | --- | --- | --- | --- | --- | --- | --- | --- | --- | --- | --- | --- | --- | --- |
| O=C(O)C1C[S][Tc-]23(=[O])[S]CC(=O)[N]2CC(=O)[N]13 (single isomer, unassigned) [XVIA] | 13.13 % total dose and 9.63 % total dose and 3.25 % total dose | 38.08 % total dose and 34.15 % total dose and 33.73 % total dose | 49.99 % total dose and 47.44 % total dose and 46.89 % total dose | 57.29 % total dose and 59.01 % total dose and 56.40 % total dose | 63.73 % total dose and 64.39 % total dose and 62.63 % total dose | 63.67 % total dose and 66.95 % total dose and 58.77 % total dose | 66.64 % total dose and 72.79 % total dose and 63.08 % total dose | 67.50 % total dose | 91.71 | identical | comparable rates of excretion to each other and to OIH | cleared rapidly into the urine at comparable rates to each other and to the radiopharmaceutical ^131 I-OIH | 8.67 % total dose | 35.32 % total dose | 48.11 % total dose | 57.57 % total dose | 63.25 % total dose | 63.20 % total dose | 67.50 % total dose | Blood, % total dose per organ ± s.d. [2, 4]: 2.24 ± 0.33 % total dose per organ; Intestine, % total dose per organ ± s.d. [2, 4]: 1.07 ± 0.20 % total dose per organ; Kidneys, % total dose per organ ± s.d. [2, 4]: 3.19 ± 0.41 % total dose per organ; Liver, % total dose per organ ± s.d. [2, 4]: 1.39 ± 0.31 % total dose per organ; Stomach, % total dose per organ ± s.d. [2, 4]: 0.10 ± 0.01 % total dose per organ; Urine, % total dose ± s.d. [2, 4]: 65.01 ± 9.7 % total dose per organ; Blood, % total dose per organ ± s.d. [2, 5]: 0.05 ± 0.01 % total dose per organ; Intestine, % total dose per organ ± s.d. [2, 5]: 0.99 ± 0.59 % total dose per organ; Kidneys, % total dose per organ ± s.d. [2, 5]: 0.11 ± 0.04 % total dose per organ; Liver, % total dose per organ ± s.d. [2, 5]: 0.19 ± 0.03 % total dose per organ; Stomach, % total dose per organ ± s.d. [2, 5]: 0.21 ± 0.47 % total dose per organ; Urine, % total dose ± s.d. [2, 5]: 89.87 ± 2.70 % total dose per organ |
| O=C(O)C1C[S][Tc-]23(=[O])[S]CC(=O)[N]2CC(=O)[N]13 (single isomer, unassigned) [XVIB] | 12.31 % total dose and 10.03 % total dose and 19.60 % total dose | 28.53 % total dose and 33.78 % total dose and 36.51 % total dose | 39.47 % total dose and 45.88 % total dose and 47.52 % total dose | 45.09 % total dose and 53.55 % total dose and 55.57 % total dose | 48.09 % total dose and 60.94 % total dose and 59.98 % total dose | 53.05 % total dose and 64.60 % total dose and 70.00 % total dose | 54.63 % total dose and 73.12 % total dose and 71.57 % total dose | 66.44 % total dose | 92.25 | identical | comparable rates of excretion to each other and to OIH | cleared rapidly into the urine at comparable rates to each other and to the radiopharmaceutical ^131 I-OIH | 13.98 % total dose | 32.94 % total dose | 44.29 % total dose | 51.40 % total dose | 56.34 % total dose | 62.55 % total dose | 66.44 % total dose | Blood, % total dose per organ ± s.d. [2, 6]: 1.47 ± 0.72 % total dose per organ; Intestine, % total dose per organ ± s.d. [2, 6]: 0.48 ± 0.18 % total dose per organ; Kidneys, % total dose per organ ± s.d. [2, 6]: 4.41 ± 3.6 % total dose per organ; Liver, % total dose per organ ± s.d. [2, 6]: 0.79 ± 0.49 % total dose per organ; Stomach, % total dose per organ ± s.d. [2, 6]: 0.06 ± 0.03 % total dose per organ; Urine, % total dose ± s.d. [2, 6]: 79.32 ± 5.1 % total dose per organ; Blood, % total dose per organ ± s.d. [2, 7]: 0.13 ± 0.10 % total dose per organ; Intestine, % total dose per organ ± s.d. [2, 7]: 0.40 ± 0.17 % total dose per organ; Kidneys, % total dose per organ ± s.d. [2, 7]: 0.08 ± 0.07 % total dose per organ; Liver, % total dose per organ ± s.d. [2, 7]: 0.11 ± 0.06 % total dose per organ; Stomach, % total dose per organ ± s.d. [2, 7]: 0.07 ± 0.12 % total dose per organ; Urine, % total dose ± s.d. [2, 7]: 91.47 ± 1.1 % total dose per organ |
